Test results from PubChem BioAssay AID2060901 (Molecular Pharmacology Branch, DTP, NCI, 2025).
One block for each molecule: values may come before it.

Tested on: 422866-222-R5-J1-PDC complex spheroids viability
Test: Anticancer human tumor 422866-222-R5-J1-PDC patient-derived pancreatic adenocarcinoma cell line growth inhibition [RAS]
Details: for IC50: curve of first compound; for viability, T/C: stronger effect = lower value
In short: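 Multi-cell-type spheroids: tumor cells plus HUVEC endothelial cells and mesenchymal stem cells. RAS-pathway inhibitors were combined with targeted agents, each dosed in half-log steps down from clinical Cmax, or from 10 microM when Cmax was unknown.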
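Note: spheroids exposed to compounds for 7 days.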
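Throughout, for viability, T/C: 100% = DMSO vehicle control viability.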

IC50 (second compound 0.000949 µM): < 31.6 nM
IC50 (second compound 0.003 µM): < 31.6 nM
IC50 (second compound 0.00949 µM): < 31.6 nM
IC50 (second compound 0.03 µM): < 31.6 nM
IC50 (second compound 0.0949 µM): < 31.6 nM
IC50 (second compound 0.3 µM): < 31.6 nM
SMILES: CCC(CC)c1cc(NC2CCC(N)C2)n2nccc2n1 (centres undefined) + CCn1c(-c2cc(N3CCN(C)CC3)cnc2C(C)OC)c2c3cc(ccc31)-c1csc(n1)CC(NC(=O)C1CC1C)C(=O)N1CCCC(N1)C(=O)OCC(C)(C)C2
viability, T/C (second compound 0.000949 µM, first compound 0.0316 µM): 36.1%
viability, T/C (second compound 0.000949 µM, first compound 0.1 µM): 34.6%
viability, T/C (second compound 0.000949 µM, first compound 0.316 µM): 36.9%
viability, T/C (second compound 0.000949 µM, first compound 1 µM): 38.4%
viability, T/C (second compound 0.000949 µM, first compound 3.16 µM): 15.5%
viability, T/C (second compound 0.000949 µM, first compound 10 µM): 51.6%
viability, T/C (second compound 0.003 µM, first compound 0.0316 µM): 22.1%
viability, T/C (second compound 0.003 µM, first compound 0.1 µM): 24.1%
viability, T/C (second compound 0.003 µM, first compound 0.316 µM): 24.7%
viability, T/C (second compound 0.003 µM, first compound 1 µM): 27.2%
viability, T/C (second compound 0.003 µM, first compound 3.16 µM): 15.2%
viability, T/C (second compound 0.003 µM, first compound 10 µM): 50.2%
viability, T/C (second compound 0.00949 µM, first compound 0.0316 µM): 23.4%
viability, T/C (second compound 0.00949 µM, first compound 0.1 µM): 24.7%
viability, T/C (second compound 0.00949 µM, first compound 0.316 µM): 23.6%
viability, T/C (second compound 0.00949 µM, first compound 1 µM): 25.8%
viability, T/C (second compound 0.00949 µM, first compound 3.16 µM): 17.8%
viability, T/C (second compound 0.00949 µM, first compound 10 µM): 46.1%
viability, T/C (second compound 0.03 µM, first compound 0.0316 µM): 20.7%
viability, T/C (second compound 0.03 µM, first compound 0.1 µM): 20.4%
viability, T/C (second compound 0.03 µM, first compound 0.316 µM): 24.9%
viability, T/C (second compound 0.03 µM, first compound 1 µM): 27.7%
viability, T/C (second compound 0.03 µM, first compound 3.16 µM): 17.4%
viability, T/C (second compound 0.03 µM, first compound 10 µM): 57.6%
viability, T/C (second compound 0.0949 µM, first compound 0.0316 µM): 21.6%
viability, T/C (second compound 0.0949 µM, first compound 0.1 µM): 22.1%
viability, T/C (second compound 0.0949 µM, first compound 0.316 µM): 26.9%
viability, T/C (second compound 0.0949 µM, first compound 1 µM): 32.8%
viability, T/C (second compound 0.0949 µM, first compound 3.16 µM): 18.4%
viability, T/C (second compound 0.0949 µM, first compound 10 µM): 49.6%
viability, T/C (second compound 0.3 µM, first compound 0.0316 µM): 22.4%
viability, T/C (second compound 0.3 µM, first compound 0.1 µM): 22.3%
viability, T/C (second compound 0.3 µM, first compound 0.316 µM): 25.7%
viability, T/C (second compound 0.3 µM, first compound 1 µM): 32.3%
viability, T/C (second compound 0.3 µM, first compound 3.16 µM): 22.3%
viability, T/C (second compound 0.3 µM, first compound 10 µM): 51.4%

IC50 (second compound 0.000949 µM): < 0.949 nM
IC50 (second compound 0.003 µM): < 0.949 nM
IC50 (second compound 0.00949 µM): < 0.949 nM
IC50 (second compound 0.03 µM): < 0.949 nM
IC50 (second compound 0.0949 µM): < 0.949 nM
IC50 (second compound 0.3 µM): < 0.949 nM
SMILES: CC1(C)CCC(Nc2ncc(C(F)(F)F)c(-c3c[nH]c4c(P(C)(C)=O)c(C#N)ccc34)n2)CN1 (centres undefined) + CCn1c(-c2cc(N3CCN(C)CC3)cnc2C(C)OC)c2c3cc(ccc31)-c1csc(n1)CC(NC(=O)C1CC1C)C(=O)N1CCCC(N1)C(=O)OCC(C)(C)C2
viability, T/C (second compound 0.000949 µM, first compound 0.000949 µM): 30.6%
viability, T/C (second compound 0.000949 µM, first compound 0.003 µM): 29.6%
viability, T/C (second compound 0.000949 µM, first compound 0.00949 µM): 32.5%
viability, T/C (second compound 0.000949 µM, first compound 0.03 µM): 31.7%
viability, T/C (second compound 0.000949 µM, first compound 0.0949 µM): 30%
viability, T/C (second compound 0.000949 µM, first compound 0.3 µM): 33.4%
viability, T/C (second compound 0.003 µM, first compound 0.000949 µM): 24.3%
viability, T/C (second compound 0.003 µM, first compound 0.003 µM): 24%
viability, T/C (second compound 0.003 µM, first compound 0.00949 µM): 27.2%
viability, T/C (second compound 0.003 µM, first compound 0.03 µM): 27.5%
viability, T/C (second compound 0.003 µM, first compound 0.0949 µM): 26.9%
viability, T/C (second compound 0.003 µM, first compound 0.3 µM): 31.3%
viability, T/C (second compound 0.00949 µM, first compound 0.000949 µM): 21.2%
viability, T/C (second compound 0.00949 µM, first compound 0.003 µM): 21.1%
viability, T/C (second compound 0.00949 µM, first compound 0.00949 µM): 23.1%
viability, T/C (second compound 0.00949 µM, first compound 0.03 µM): 21.6%
viability, T/C (second compound 0.00949 µM, first compound 0.0949 µM): 25.4%
viability, T/C (second compound 0.00949 µM, first compound 0.3 µM): 24.8%
viability, T/C (second compound 0.03 µM, first compound 0.000949 µM): 22.2%
viability, T/C (second compound 0.03 µM, first compound 0.003 µM): 21.2%
viability, T/C (second compound 0.03 µM, first compound 0.00949 µM): 25.4%
viability, T/C (second compound 0.03 µM, first compound 0.03 µM): 23.5%
viability, T/C (second compound 0.03 µM, first compound 0.0949 µM): 25%
viability, T/C (second compound 0.03 µM, first compound 0.3 µM): 22.8%
viability, T/C (second compound 0.0949 µM, first compound 0.000949 µM): 19.1%
viability, T/C (second compound 0.0949 µM, first compound 0.003 µM): 22.9%
viability, T/C (second compound 0.0949 µM, first compound 0.00949 µM): 24.6%
viability, T/C (second compound 0.0949 µM, first compound 0.03 µM): 20.7%
viability, T/C (second compound 0.0949 µM, first compound 0.0949 µM): 23.1%
viability, T/C (second compound 0.0949 µM, first compound 0.3 µM): 28.9%
viability, T/C (second compound 0.3 µM, first compound 0.000949 µM): 19.7%
viability, T/C (second compound 0.3 µM, first compound 0.003 µM): 22.6%
viability, T/C (second compound 0.3 µM, first compound 0.00949 µM): 26.8%
viability, T/C (second compound 0.3 µM, first compound 0.03 µM): 24.1%
viability, T/C (second compound 0.3 µM, first compound 0.0949 µM): 28.1%
viability, T/C (second compound 0.3 µM, first compound 0.3 µM): 28.1%
